Assay results from paper PMC3382171 (PLoS ONE, 2012).

How the values were obtained:
Experiment in all cases: biochemical
Design in all cases: University of Dundee kinase panel, percent inhibition of phosphorylation at 1 uM RAFi, ATP at Km
Settings in all cases: read-out: Dundee KSS %inh at 1 uM
[1] = target: T1, p38 (Homo sapiens, UniProt Q16539)
T1 construct: gene MAPK14
Method in brief: (§1)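 Commercial kinase panel screens run with ATP at the Km for each kinase. Compounds tested at 1 µM final concentration; values are % inhibition of phosphorylation relative to control.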

[2] = target: AKT2 (Homo sapiens, UniProt P31751)
Method in brief: as §1

[3] = target: T2, MNK1 (Homo sapiens, UniProt Q9BUB5)
T2 construct: gene MKNK1
Method in brief: as §1

[4] = target: T3, CHK1 (Homo sapiens, UniProt O14757)
T3 construct: gene CHEK1
Method in brief: as §1

[5] = target: T4, PDK1 (Homo sapiens, UniProt O15530)
T4 construct: gene PDPK1
Method in brief: as §1

[6] = target: T5, SGK (Homo sapiens, UniProt O00141)
T5 construct: gene SGK1
Method in brief: as §1

[7] = target: NEK6 (Homo sapiens, UniProt Q9HC98)
Method in brief: as §1

T2 sequence (Q9BUB5 whole entry): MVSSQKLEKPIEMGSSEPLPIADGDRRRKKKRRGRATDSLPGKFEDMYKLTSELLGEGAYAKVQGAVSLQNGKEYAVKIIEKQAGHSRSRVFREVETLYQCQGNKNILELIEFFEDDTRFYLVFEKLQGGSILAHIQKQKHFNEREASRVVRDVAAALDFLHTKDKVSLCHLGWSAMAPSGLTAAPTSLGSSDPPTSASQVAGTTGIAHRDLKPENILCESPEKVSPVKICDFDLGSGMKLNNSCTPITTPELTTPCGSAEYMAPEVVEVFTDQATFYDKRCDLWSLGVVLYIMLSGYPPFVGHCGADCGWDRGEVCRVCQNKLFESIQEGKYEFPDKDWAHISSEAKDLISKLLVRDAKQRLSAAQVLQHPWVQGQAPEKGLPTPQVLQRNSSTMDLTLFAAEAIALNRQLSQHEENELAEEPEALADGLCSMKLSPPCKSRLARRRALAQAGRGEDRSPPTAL
T4 sequence (O15530 whole entry): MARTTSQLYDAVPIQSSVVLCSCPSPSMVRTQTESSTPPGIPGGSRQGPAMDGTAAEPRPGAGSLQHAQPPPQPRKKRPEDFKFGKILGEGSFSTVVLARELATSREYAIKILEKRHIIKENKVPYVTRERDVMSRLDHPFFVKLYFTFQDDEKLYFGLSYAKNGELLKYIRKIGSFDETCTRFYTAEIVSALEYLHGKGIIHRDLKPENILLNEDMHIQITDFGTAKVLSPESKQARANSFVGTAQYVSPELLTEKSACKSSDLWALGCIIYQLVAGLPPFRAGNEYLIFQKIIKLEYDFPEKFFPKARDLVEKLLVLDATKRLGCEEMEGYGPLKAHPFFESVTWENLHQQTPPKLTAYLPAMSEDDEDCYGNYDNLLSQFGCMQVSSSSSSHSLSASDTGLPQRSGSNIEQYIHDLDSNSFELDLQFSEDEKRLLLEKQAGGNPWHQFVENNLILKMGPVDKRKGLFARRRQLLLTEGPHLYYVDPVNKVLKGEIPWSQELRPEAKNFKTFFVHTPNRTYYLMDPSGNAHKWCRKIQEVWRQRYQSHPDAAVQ
AKT2, sequence (P31751 whole entry): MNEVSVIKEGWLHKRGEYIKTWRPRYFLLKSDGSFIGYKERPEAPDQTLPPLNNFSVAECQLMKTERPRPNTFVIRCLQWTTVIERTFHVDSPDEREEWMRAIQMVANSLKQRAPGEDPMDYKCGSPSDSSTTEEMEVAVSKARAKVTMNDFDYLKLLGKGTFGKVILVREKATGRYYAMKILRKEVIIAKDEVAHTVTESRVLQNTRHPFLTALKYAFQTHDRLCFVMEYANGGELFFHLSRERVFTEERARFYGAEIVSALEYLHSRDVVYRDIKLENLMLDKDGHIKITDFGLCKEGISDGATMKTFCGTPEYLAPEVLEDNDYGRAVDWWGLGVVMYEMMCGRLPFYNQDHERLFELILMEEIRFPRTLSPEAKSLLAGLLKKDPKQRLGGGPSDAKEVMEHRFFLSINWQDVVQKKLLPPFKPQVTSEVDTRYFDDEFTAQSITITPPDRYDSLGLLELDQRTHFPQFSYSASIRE
T3 sequence (O14757 whole entry): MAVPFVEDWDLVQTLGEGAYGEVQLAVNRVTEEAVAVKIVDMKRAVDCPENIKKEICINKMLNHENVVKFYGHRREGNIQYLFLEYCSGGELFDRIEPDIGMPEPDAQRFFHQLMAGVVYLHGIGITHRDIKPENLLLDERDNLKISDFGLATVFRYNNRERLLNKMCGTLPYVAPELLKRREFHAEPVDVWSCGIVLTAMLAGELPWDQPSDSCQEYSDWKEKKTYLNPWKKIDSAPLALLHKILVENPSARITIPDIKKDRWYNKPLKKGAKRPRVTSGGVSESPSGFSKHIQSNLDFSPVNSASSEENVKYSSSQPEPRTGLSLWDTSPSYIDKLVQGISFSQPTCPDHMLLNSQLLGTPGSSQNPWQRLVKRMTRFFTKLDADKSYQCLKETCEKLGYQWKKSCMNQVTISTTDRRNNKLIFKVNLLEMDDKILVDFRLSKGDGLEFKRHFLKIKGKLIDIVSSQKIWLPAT
T1 sequence (Q16539 whole entry): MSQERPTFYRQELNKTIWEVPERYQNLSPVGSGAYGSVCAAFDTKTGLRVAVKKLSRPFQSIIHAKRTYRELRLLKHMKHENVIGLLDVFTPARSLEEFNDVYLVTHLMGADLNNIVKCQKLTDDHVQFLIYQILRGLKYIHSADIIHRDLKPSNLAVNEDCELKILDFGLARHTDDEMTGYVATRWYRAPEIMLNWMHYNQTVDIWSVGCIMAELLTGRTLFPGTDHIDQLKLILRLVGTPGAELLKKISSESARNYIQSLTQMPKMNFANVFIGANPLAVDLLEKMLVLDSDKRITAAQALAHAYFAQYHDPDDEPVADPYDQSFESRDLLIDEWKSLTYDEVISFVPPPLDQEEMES
NEK6, sequence (Q9HC98 whole entry): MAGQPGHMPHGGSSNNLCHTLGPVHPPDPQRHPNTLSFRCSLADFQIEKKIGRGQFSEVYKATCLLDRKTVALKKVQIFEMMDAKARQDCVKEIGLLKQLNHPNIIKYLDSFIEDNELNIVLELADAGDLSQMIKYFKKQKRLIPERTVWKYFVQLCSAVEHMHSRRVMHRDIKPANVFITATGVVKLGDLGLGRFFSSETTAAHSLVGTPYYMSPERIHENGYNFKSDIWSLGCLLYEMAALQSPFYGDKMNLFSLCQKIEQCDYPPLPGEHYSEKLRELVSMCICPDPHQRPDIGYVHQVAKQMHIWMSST
T5 sequence (O00141 whole entry): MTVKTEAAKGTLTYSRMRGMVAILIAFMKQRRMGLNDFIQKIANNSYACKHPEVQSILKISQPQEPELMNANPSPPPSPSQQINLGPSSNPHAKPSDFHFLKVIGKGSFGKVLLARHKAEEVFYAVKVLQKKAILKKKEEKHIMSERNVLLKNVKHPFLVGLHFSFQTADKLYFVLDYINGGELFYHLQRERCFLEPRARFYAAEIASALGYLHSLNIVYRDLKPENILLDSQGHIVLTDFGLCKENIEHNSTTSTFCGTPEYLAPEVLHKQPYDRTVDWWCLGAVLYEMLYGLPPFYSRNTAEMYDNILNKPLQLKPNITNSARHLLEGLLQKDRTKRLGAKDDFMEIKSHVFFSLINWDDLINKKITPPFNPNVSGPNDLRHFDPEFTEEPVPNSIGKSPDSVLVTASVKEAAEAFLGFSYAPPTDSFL

N#CCCNc1nccc(-c2cn(CC(F)F)nc2-c2cnc3[nH]ccc3c2)n1 [RAFi, PF-04880594]
inhibition at 1 µM [1]: 96%
inhibition at 1 µM [2]: 28%
inhibition at 1 µM [3]: 7%
inhibition at 1 µM [4]: 2%
inhibition at 1 µM [5]: 11%
inhibition at 1 µM [6]: 4%
inhibition at 1 µM [7]: 13%
